Assay results published in PubChem BioAssay AID330 (DTP/NCI, 2004).
Toxic doses and inconclusive results are not listed. How the source made its calls: active means survival T/C of 150% or more; inactive means T/C below 125% in these data.

Test system: P388 leukemia ip, CD2F1 mice, survival T/C
Experiment: NCI In Vivo Anticancer Drug Screen. Data for tumor model P388 Leukemia (intraperitoneal) in CD2F1 (CDF1) mice
Settings: endpoint: median survival time, higher = longer survival
Summary of the method: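 Mice carrying the transplanted tumor received test compound or vehicle. Survival was recorded in each group, and the value is the treated-group measurement divided by that of the vehicle-treated control group.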

[1] = dose: 60.0 mg/kg/injection, schedule: Q01DX005 (ip), vehicle: saline
[2] = dose: 120.0 mg/kg/injection, schedule: Q01DX005 (ip), vehicle: saline
[3] = dose: 240.0 mg/kg/injection, schedule: Q01DX005 (ip), vehicle: saline
[4] = dose: 50.0 mg/kg/injection, schedule: Q01DX009 (ip), vehicle: saline
[5] = dose: 100.0 mg/kg/injection, schedule: Q01DX009 (ip), vehicle: saline
[6] = dose: 100.0 mg/kg/injection, schedule: Q04DX003 (ip), vehicle: saline with Tween-80
[7] = dose: 6.25 mg/kg/injection, schedule: Q01DX009 (ip), vehicle: saline
[8] = dose: 12.5 mg/kg/injection, schedule: Q01DX009 (ip), vehicle: saline
[9] = dose: 50.0 mg/kg/injection, schedule: Q01DX005 (ip), vehicle: Klucel (hydroxypropylcellulose) (HPC)
[10] = dose: 100.0 mg/kg/injection, schedule: Q01DX005 (ip), vehicle: Klucel (hydroxypropylcellulose) (HPC)
[11] = dose: 200.0 mg/kg/injection, schedule: Q04DX003 (ip), vehicle: saline with Tween-80
[12] = dose: 400.0 mg/kg/injection, schedule: Q04DX003 (ip), vehicle: saline with Tween-80

Measured: T/C

COc1ccc(-c2coc3c4c(ccc3c2=O)OCO4)cc1OC
inactive: dose: 9.75 mg/kg/injection, schedule: Q01DX005 (ip), vehicle: Klucel (hydroxypropylcellulose) (HPC) 94 % of control | dose: 19.5 mg/kg/injection, schedule: Q01DX005 (ip), vehicle: Klucel (hydroxypropylcellulose) (HPC) 94 % of control | dose: 39.0 mg/kg/injection, schedule: Q01DX005 (ip), vehicle: Klucel (hydroxypropylcellulose) (HPC) 87 % of control | dose: 78.0 mg/kg/injection, schedule: Q01DX005 (ip), vehicle: Klucel (hydroxypropylcellulose) (HPC) 86 % of control

Cc1nc2c([N+](=O)[O-])cc(C(=O)O)cc2[nH]1
inactive: [1] 100 % of control | [2] 97 % of control | [3] 87 % of control

COc1cc(O)c2c(c1)C(O)C(O)CC1OC1C(=O)/C=C/CC(C)OC2=O (centres undefined)
inactive: dose: 1.56 mg/kg/injection, schedule: Q01DX005 (ip), vehicle: saline with Tween-80 115 % of control | dose: 3.12 mg/kg/injection, schedule: Q01DX005 (ip), vehicle: saline with Tween-80 107 % of control | dose: 6.25 mg/kg/injection, schedule: Q01DX005 (ip), vehicle: saline with Tween-80 107 % of control | dose: 12.5 mg/kg/injection, schedule: Q01DX005 (ip), vehicle: saline with Tween-80 114 % of control

CC1=CCCC(C)(O)C2CC(CCC3(C)OC3CC1)C(C)C(=O)O2 (centres undefined)
inactive: dose: 7.5 mg/kg/injection, schedule: Q01DX009 (ip), vehicle: Klucel (hydroxypropylcellulose) (HPC) 108 % of control | dose: 15.0 mg/kg/injection, schedule: Q01DX009 (ip), vehicle: Klucel (hydroxypropylcellulose) (HPC) 103 % of control | dose: 30.0 mg/kg/injection, schedule: Q01DX009 (ip), vehicle: Klucel (hydroxypropylcellulose) (HPC) 89 % of control | dose: 60.0 mg/kg/injection, schedule: Q01DX009 (ip), vehicle: Klucel (hydroxypropylcellulose) (HPC) 91 % of control

COC(OC)C(C)(C)NC1CCCCC1
inactive: [4] 105 % of control | [5] 104 % of control

CC(C)c1ccc(C(O)C2CC2)cc1 (centres undefined)
inactive: dose: 50.0 mg/kg/injection, schedule: Q04DX003 (ip), vehicle: saline with Tween-80 109 % of control | [6] 95 % of control

NNC(=O)c1ccccc1Cl
inactive: dose: 6.25 mg/kg/injection, schedule: Q01DX009 (ip), vehicle: Klucel (hydroxypropylcellulose) (HPC) 97 % of control | [7] 100 % of control | dose: 12.5 mg/kg/injection, schedule: Q01DX009 (ip), vehicle: Klucel (hydroxypropylcellulose) (HPC) 96 % of control | [8] 100 % of control | dose: 25.0 mg/kg/injection, schedule: Q01DX009 (ip), vehicle: Klucel (hydroxypropylcellulose) (HPC) 100 % of control

CC1(C)N=C(N)N=C(N)N1c1ccc(CCc2ccc(S(=O)(=O)F)cc2)c(Cl)c1
inactive: dose: 25.0 mg/kg/injection, schedule: Q04DX003 (ip), vehicle: saline with Tween-80 118 % of control | dose: 33.0 mg/kg/injection, schedule: Q04DX003 (ip), vehicle: saline sonified 118 % of control | dose: 50.0 mg/kg/injection, schedule: Q04DX003 (ip), vehicle: saline sonified 118 % of control | [6] 113 % of control

CC1C(=O)OC23CC(C)(C)C4OC42C(C)CCC13O (centres undefined)
inactive: dose: 0.37 mg/kg/injection, schedule: Q01DX009 (ip), vehicle: saline 93 % of control | dose: 0.75 mg/kg/injection, schedule: Q01DX009 (ip), vehicle: saline 99 % of control | dose: 1.5 mg/kg/injection, schedule: Q01DX009 (ip), vehicle: saline 97 % of control | dose: 3.0 mg/kg/injection, schedule: Q01DX009 (ip), vehicle: saline 99 % of control

C[N+]1(CCC(/C=C/c2ccc([N+](=O)[O-])cc2)=N\O)CCOCC1
inactive: dose: 7.5 mg/kg/injection, schedule: Q01DX005 (ip), vehicle: saline with Tween-80 107 % of control | dose: 15.0 mg/kg/injection, schedule: Q01DX005 (ip), vehicle: saline with Tween-80 93 % of control | dose: 30.0 mg/kg/injection, schedule: Q01DX005 (ip), vehicle: saline with Tween-80 100 % of control

C1CC[N+]2(CC1)CCCCC2
inactive: [7] 100 % of control | [8] 100 % of control | dose: 25.0 mg/kg/injection, schedule: Q01DX009 (ip), vehicle: saline 108 % of control | [4] 98 % of control

O=C1CCCC(O)=C1[Se]C1=C(O)CCCC1=O
inactive: dose: 6.25 mg/kg/injection, schedule: Q01DX001 (ip), vehicle: saline 103 % of control | dose: 12.5 mg/kg/injection, schedule: Q01DX001 (ip), vehicle: saline 101 % of control | dose: 25.0 mg/kg/injection, schedule: Q01DX001 (ip), vehicle: saline 101 % of control

COc1ccc(C(c2cc3c(cc2O)OCO3)N2CCN(C(c3ccc(OC)cc3)c3cc4c(cc3O)OCO4)CC2)cc1 (centres undefined)
inactive: dose: 60.0 mg/kg/injection, schedule: Q01DX005 (ip), vehicle: saline with Tween-80 87 % of control | dose: 120.0 mg/kg/injection, schedule: Q01DX005 (ip), vehicle: saline with Tween-80 92 % of control | dose: 240.0 mg/kg/injection, schedule: Q01DX005 (ip), vehicle: saline with Tween-80 87 % of control

BrCCCCOCBr
inactive: [1] 95 % of control | [2] 95 % of control | [3] 86 % of control

CC(C)[Si]1(C(C)C)N[Si](C(C)C)(C(C)C)N1
inactive: dose: 15.0 mg/kg/injection, schedule: Q01DX005 (ip), vehicle: saline 115 % of control | dose: 30.0 mg/kg/injection, schedule: Q01DX005 (ip), vehicle: saline 105 % of control | [1] 98 % of control | [2] 106 % of control | [3] 97 % of control

Cc1[nH]c(=O)[nH]c(=O)c1C(=O)O
inactive: dose: 50.0 mg/kg/injection, schedule: Q01DX009 (ip), vehicle: saline with Tween-80 100 % of control | dose: 100.0 mg/kg/injection, schedule: Q01DX009 (ip), vehicle: saline with Tween-80 105 % of control | dose: 200.0 mg/kg/injection, schedule: Q01DX009 (ip), vehicle: saline with Tween-80 99 % of control

Cc1ccn(C)n1
inactive: [1] 96 % of control | [2] 93 % of control | [3] 100 % of control

CC(=O)NCC1CC2(Cl)C(Cl)=C(Cl)C1(Cl)C2(Cl)Cl (centres undefined)
inactive: [9] 101 % of control | [10] 106 % of control | dose: 200.0 mg/kg/injection, schedule: Q01DX005 (ip), vehicle: Klucel (hydroxypropylcellulose) (HPC) 106 % of control

CCOc1cc2c(cc1C(CC)c1ccc(OCc3ccccc3)cc1)OCO2 (centres undefined)
inactive: [9] 92 % of control | [10] 87 % of control

CN(C)CC(CN(C)C)C(O)c1ccccc1 (centres undefined)
inactive: [1] 109 % of control | [2] 100 % of control | [3] 109 % of control

COC(=O)N[Si](C)(C)C
inactive: [4] 93 % of control | [5] 98 % of control | dose: 200.0 mg/kg/injection, schedule: Q01DX009 (ip), vehicle: saline 100 % of control

CCCOC1C=C(C)C(=O)O1 (centres undefined)
inactive: dose: 40.5 mg/kg/injection, schedule: Q01DX005 (ip), vehicle: saline with Tween-80 103 % of control | dose: 81.0 mg/kg/injection, schedule: Q01DX005 (ip), vehicle: saline with Tween-80 104 % of control | dose: 162.0 mg/kg/injection, schedule: Q01DX005 (ip), vehicle: saline with Tween-80 112 % of control

CC(=O)OCC1OC(n2nc(/C=C/c3ccco3)c(=O)n(-c3ccccc3)c2=S)C(OC(C)=O)C(OC(C)=O)C1OC(C)=O (centres undefined)
inactive: [6] 107 % of control | [11] 100 % of control | [12] 101 % of control

O=[N+]([O-])c1cc2[nH]cnc2c([N+](=O)[O-])c1Nc1ccccc1
inactive: [6] 102 % of control | [11] 93 % of control | [12] 101 % of control
